Measurements as given in US9060515B2, “Heterocyclic urea compounds” (BIOTA EUROPE LTD, priority 2011, dated 2015).
Converted amounts (≈) assume the structure as drawn.

Legend:
Format in all cases: cell-based
[1] = tested on: E. faecalis (ATCC 29212); test: Antibacterial susceptibility testing (MIC, broth microdilution or agar dilution), E. faecalis; details: Enterococcus faecalis, ATCC29212; read-out: E. faecalis (ATCC 29212) minimal inhibitory concentration (MIC)
Experimental: Compounds of the invention were tested for antimicrobial activity by susceptibility testing in liquid or on solid media. MICs for compounds against each strain were determined by the broth microdilution or agar dilution method according to the guidelines of the Clinical Laboratories and Standards Institute, formerly the National Committee for Clinical Laboratory Standards (Clinical Laboratories and Standards Institute. Methods for Dilution Antimicrobial Susceptibility Tests for Bacteria That Grow Aerobically; Approved Standard—Seventh Edition. Document M7-A7. CLSI, Wayne, Pa., 2006; Clinical Laboratories and Standards Institute. The Gram positive bacterial strains tested include S. aureus (Staphylococcus aureus (Isolate ID ATCC 29213)), E. faecalis (Enterococcus faecalis (Isolate ID ATCC 29212)) and S. pyogenes (Streptococcus pyogenes (Isolate ID ATCC 51339)). The Gram negative bacterial strains tested include H. influenzae (Haemophilus influenzae (Isolate ID ATCC 49247)).

[2] = tested on: S. aureus (ATCC 29213); test: Antibacterial susceptibility testing (MIC, broth microdilution or agar dilution), S. aureus; details: Staphylococcus aureus, ATCC29213; read-out: S. aureus (ATCC 29213) minimal inhibitory concentration (MIC)
Method in brief: (§1)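 MICs by CLSI (M7-A7) broth microdilution or agar dilution, against reference ATCC strains as listed.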

[3] = tested on: S. pyogenes (ATCC 51339); test: Antibacterial susceptibility testing (MIC, broth microdilution or agar dilution), S. pyogenes; details: Streptococcus pyogenes, ATCC51339; read-out: S. pyogenes (ATCC 51339) minimal inhibitory concentration (MIC)
Method in brief: as §1

Row | MIC [1] [µg/mL] | MIC [2] [µg/mL] | MIC [3] [µg/mL] | SMILES
1 | ≤ 1 | – | – | CCNC(=O)Nc1cc(Nc2ccccc2)c(C(=O)Nc2ccnc(C(=O)OC)c2)cn1 [Compound 21, methyl 4-(6-(3-ethylureido)-4-(phenylamino)nicotinamido)picolinate]
2 | ≤ 1 | – | – | CCNC(=O)Nc1cc(Nc2ccccc2)c(C(=O)Nc2ccc(-n3cncn3)nc2)cn1 [Compound 27, N-(6-(1H-1,2,4-triazol-1-yl)pyridin-3-yl)-6-(3-ethylureido)-4-(phenylamino)nicotinamide]
3 | – | ≤ 1 | ≤ 1 | CCNC(=O)Nc1cc(Nc2ccccc2Cl)c(C(=O)Nc2cccnc2)cn1 [Compound 105, 4-(2-chlorophenylamino)-6-(3-ethylureido)-N-(pyridin-3-yl)nicotinamide]
4 | – | ≤ 1 | ≤ 1 | CCNC(=O)Nc1cc(Nc2ccc(Cl)cc2)c(C(=O)Nc2cccnc2)cn1 [Compound 106, 4-(4-chlorophenylamino)-6-(3-ethylureido)-N-(pyridin-3-yl)nicotinamide]
5 | – | ≤ 1 | 2 (≈ 4.87 µM) | CCNC(=O)Nc1cc(Nc2cccc(Cl)c2)c(C(=O)Nc2cccnc2)cn1 [Compound 107, 4-(3-chlorophenylamino)-6-(3-ethylureido)-N-(pyridin-3-yl)nicotinamide]
6 | – | 2 (≈ 4.92 µM) | ≤ 1 | CCNC(=O)Nc1cc(Nc2ccccc2OC)c(C(=O)Nc2cccnc2)cn1 [Compound 109, 6-(3-ethylureido)-4-(2-methoxyphenylamino)-N-(pyridin-3-yl)nicotinamide]
7 | – | 4 (≈ 8.65 µM) | 4 (≈ 8.65 µM) | CCNC(=O)Nc1cc(Nc2ccc(CC(=O)OCC)cc2)c(C(=O)Nc2cccnc2)cn1 [Compound 110, ethyl 2-(4-(2-(3-ethylureido)-5-(pyridin-3-ylcarbamoyl)pyridin-4-ylamino)phenyl)acetate]
8 | – | ≤ 1 | ≤ 1 | CCNC(=O)Nc1cc(Nc2cccc(OC)c2)c(C(=O)Nc2cccnc2)cn1 [Compound 111, 6-(3-ethylureido)-4-(3-methoxyphenylamino)-N-(pyridin-3-yl)nicotinamide]
9 | – | 32 (≈ 84.1 µM) | 4 (≈ 10.5 µM) | CCNC(=O)Nc1cc(Nc2cnn(C)c2)c(C(=O)Nc2cccnc2)cn1 [Compound 113, 6-(3-ethylureido)-4-(1-methyl-1H-pyrazol-4-ylamino)-N-(pyridin-3-yl)nicotinamide]
10 | – | 32 (≈ 80.9 µM) | 8 (≈ 20.2 µM) | CCNC(=O)Nc1cc(Nc2c(C)noc2C)c(C(=O)Nc2cccnc2)cn1 [Compound 115, 4-(3,5-dimethylisoxazol-4-ylamino)-6-(3-ethylureido)-N-(pyridin-3-yl)nicotinamide]
11 | – | 4 (≈ 10.5 µM) | ≤ 1 | CCNC(=O)Nc1cc(Nc2ccn(C)n2)c(C(=O)Nc2cccnc2)cn1 [Compound 116, 6-(3-ethylureido)-4-(1-methyl-1H-pyrazol-3-ylamino)-N-(pyridin-3-yl)nicotinamide]
12 | – | ≤ 1 | ≤ 1 | CCNC(=O)Nc1cc(Nc2ccccc2)c(C(=O)Nc2ccc(CCCO)cc2)cn1 [Compound 117, 6-(3-ethylureido)-N-(4-(3-hydroxypropyl)phenyl)-4-(phenylamino)nicotinamide]
13 | – | 2 (≈ 4.48 µM) | ≤ 1 | CCNC(=O)Nc1cc(Nc2ccccc2)c(C(=O)Nc2ccc(CCC(N)=O)cc2)cn1 [Compound 118, N-(4-(3-amino-3-oxopropyl)phenyl)-6-(3-ethylureido)-4-(phenylamino)nicotinamide]
14 | – | ≤ 1 | ≤ 1 | CCNC(=O)Nc1cc(Nc2ccccc2)c(C(=O)Nc2ccc(CCC(=O)N(C)C)cc2)cn1 [Compound 119, N-(4-(3-(dimethylamino)-3-oxopropyl)phenyl)-6-(3-ethylureido)-4-(phenylamino)nicotinamide]
15 | – | 2 (≈ 4.34 µM) | ≤ 1 | CCNC(=O)Nc1cc(Nc2ccccc2)c(C(=O)Nc2ccc(CCC(=O)NC)cc2)cn1 [Compound 120, 6-(3-ethylureido)-N-(4-(3-(methylamino)-3-oxopropyl)phenyl)-4-(phenylamino)nicotinamide]
16 | – | ≤ 1 | ≤ 1 | CCNC(=O)Nc1cc(Nc2ccccc2)c(C(=O)Nc2ccc(CCC(C)=O)cc2)cn1 [Compound 122, 6-(3-Ethylureido)-N-(4-(3-oxobutyl)phenyl)-4-(phenylamino)nicotinamide]
17 | – | 8 (≈ 19.7 µM) | ≤ 1 | CCNC(=O)Nc1cc(Nc2ccc(CO)cc2)c(C(=O)Nc2cccnc2)cn1 [Compound 128, 6-(3-ethylureido)-4-(4-(hydroxymethyl)phenylamino)-N-(pyridin-3-yl)nicotinamide]

Row | MIC [1] [µg/mL] | MIC [2] [µg/mL] | MIC [3] [µg/mL] | SMILES
18 | – | 2 (≈ 4.09 µM) | ≤ 1 | CCNC(=O)Nc1cc(Nc2ccccc2)c(C(=O)Nc2ccc(CC(C)(C)C(=O)OC)cc2)cn1 [Compound 129]
19 | – | 8 (≈ 16.8 µM) | 4 (≈ 8.39 µM) | CCNC(=O)Nc1cc(Nc2ccc(CCC(=O)OCC)cc2)c(C(=O)Nc2cccnc2)cn1 [Compound 131, ethyl 3-(4-(2-(3-ethylureido)-5-(pyridin-3-ylcarbamoyl)pyridin-4-ylamino)phenyl)propanoate]
20 | 4 (≈ 7.5 µM) | – | – | CCNC(=O)Nc1cc(Nc2ccc(Cl)cc2)c(C(=O)Nc2ccc(-n3cccc3C(=O)OC)cc2)cn1 [Compound 197, methyl 1-{4-[({4-[(4-chlorophenyl)amino]-6-[(ethylcarbamoyl)amino]pyridin-3-yl}carbonyl)amino]phenyl}-1H-pyrrole-2-carboxylate]
21 | 2 (≈ 4.2 µM) | 8 (≈ 16.8 µM) | – | CCNC(=O)Nc1cc(Nc2ccc(F)cc2)c(C(=O)Nc2ccc(CN3CCCC3)cc2)cn1 [Compound 200, 6-[(ethylcarbamoyl)amino]-4-[(4-fluorophenyl)amino]-N-[4-(pyrrolidin-1-ylmethyl)phenyl]pyridine-3-carboxamide]
22 | ≤ 1 | 2 (≈ 4.06 µM) | – | CCNC(=O)Nc1cc(Nc2ccc(F)cc2)c(C(=O)Nc2ccc(CN3CCOCC3)cc2)cn1 [Compound 201, 6-[(ethylcarbamoyl)amino]-4-[(4-fluorophenyl)amino]-N-[4-(morpholin-4-ylmethyl)phenyl]pyridine-3-carboxamide]
23 | 2 (≈ 3.96 µM) | 8 (≈ 15.8 µM) | – | CCNC(=O)Nc1cc(Nc2ccc(F)cc2)c(C(=O)Nc2ccc(CN3CCN(C)CC3)cc2)cn1 [Compound 202, 6-[(ethylcarbamoyl)amino]-4-[(4-fluorophenyl)amino]-N-{4-[(4-methylpiperazin-1-yl)methyl]phenyl}pyridine-3-carboxamide]
24 | ≤ 1 | 2 (≈ 4.14 µM) | – | CCNC(=O)Nc1cc(Nc2ccc(C#N)cc2)c(C(=O)Nc2ccc(CN3CCCC3)cc2)cn1 [Compound 203, 4-[(4-cyanophenyl)amino]-6-[(ethylcarbamoyl)amino]-N-[4-(pyrrolidin-1-ylmethyl)phenyl]pyridine-3-carboxamide]
25 | 8 (≈ 17 µM) | – | – | CCNC(=O)Nc1cc(Nc2ccccc2)c(C(=O)Nc2ccc(CP(=O)(O)O)cc2)cn1 [Compound 207, {4-[({6-[(ethylcarbamoyl)amino]-4-(phenylamino)pyridin-3-yl}carbonyl)amino]benzyl}phosphonic acid]
26 | 8 (≈ 21.3 µM) | – | – | CCNC(=O)Nc1cc(Nc2ccccc2)c(C(=O)Nc2ccccc2)nn1 [Compound 212, 6-[(ethylcarbamoyl)amino]-N-phenyl-4-(phenylamino)pyridazine-3-carboxamide]
27 | ≤ 1 | – | – | CCNC(=O)Nc1cc(Nc2cccc(F)c2)c(C(=O)Nc2ccc(CCC(=O)OCC)cc2)cn1 [Compound 216, ethyl 3-{4-[({6-[(ethylcarbamoyl)amino]-4-[(3-fluorophenyl)amino]pyridin-3-yl}carbonyl)amino]phenyl}propanoate]
28 | ≤ 1 | – | – | CCNC(=O)Nc1cc(Nc2ccc(C)c(F)c2)c(C(=O)Nc2ccc(CCC(=O)OCC)cc2)cn1 [Compound 217, ethyl 3-{4-[({6-[(ethylcarbamoyl)amino]-4-[(3-fluoro-4-methylphenyl)amino]pyridin-3-yl}carbonyl)amino]phenyl}propanoate]
29 | ≤ 1 | – | – | CCNC(=O)Nc1cc(Nc2ccc(F)c(C)c2)c(C(=O)Nc2ccc(CCC(=O)OCC)cc2)cn1 [Compound 218, ethyl 3-{4-[({6-[(ethylcarbamoyl)amino]-4-[(4-fluoro-3-methylphenyl)amino]pyridin-3-yl}carbonyl)amino]phenyl}propanoate]
30 | ≤ 1 | – | – | CCNC(=O)Nc1cc(Nc2ccc(Cl)cc2F)c(C(=O)Nc2ccc(CCC(=O)OCC)cc2)cn1 [Compound 219, ethyl 3-{4-[({4-[(4-chloro-2-fluorophenyl)amino]-6-[(ethylcarbamoyl)amino]pyridin-3-yl}carbonyl)amino]phenyl}propanoate]
31 | ≤ 1 | – | – | CCNC(=O)Nc1cc(Nc2ccc(F)cc2F)c(C(=O)Nc2ccc(CCC(=O)OCC)cc2)cn1 [Compound 227]
32 | 2 (≈ 4.72 µM) | – | – | CCNC(=O)Nc1cc(Nc2ccccc2)c(C(=O)Nc2ccn(CC(=O)O)n2)cn1 [Compound 233, {3-[({6-[(ethylcarbamoyl)amino]-4-(phenylamino)pyridin-3-yl}carbonyl)amino]-1H-pyrazol-1-yl}acetic acid]
33 | ≤ 1 | – | – | CCNC(=O)Nc1cc(Nc2cc(F)cc(F)c2)c(C(=O)Nc2ccc(CCC(=O)OCC)cc2)cn1 [Compound 234, ethyl 3-{4-[({4-[(3,5-difluorophenyl)amino]-6-[(ethylcarbamoyl)amino]pyridin-3-yl}carbonyl)amino]phenyl}propanoate]
